According to the supplement of paper PMC10307832:

Experiments:
Test in all cases: relative viability (nuclei count vs DMSO), 5 days (fraction); higher = more cells survive
[1] = compound: CN1C=C(C2=CC=CC=C21)/C=C\3/C4=C(C=CC=N4)NC3=O + O=C(c1cc(Cc2n[nH]c(=O)c3ccccc23)ccc1F)N1CCN(C(=O)C2CC2)CC1 [Olaparib] (partner 8 µM)
How it was run: (§1)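 Medians of duplicate plates are given as relative viability. That measure is the nuclei count in treated wells divided by the count in vehicle wells. Counts were taken on 4× images of lung cancer cell lines in 1536-well plates, 5 days after pin-tool dosing the day after seeding with one drug alone or a fixed anchor-drug dose plus five library-drug doses (not always all listed) in √10 steps.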

Trametinib + Pemetrexed = compound: CC(=O)Nc1cccc(-n2c(=O)n(C3CC3)c(=O)c3c(Nc4ccc(I)cc4F)n(C)c(=O)c(C)c32)c1 [Trametinib] + Nc1nc2[nH]cc(CCc3ccc(C(=O)N[C@@H](CCC(=O)O)C(=O)O)cc3)c2c(=O)[nH]1 [Pemetrexed] (partner 0.2 µM)
How it was run: as §1

[2] = compound: CN1C=C(C2=CC=CC=C21)/C=C\3/C4=C(C=CC=N4)NC3=O + C[C@@H](Oc1cc(-c2cnn(C3CCNCC3)c2)cnc1N)c1c(Cl)ccc(F)c1Cl [Crizotinib] (partner 1 µM)
How it was run: as §1

Trametinib + Navitoclax = compound: CC(=O)Nc1cccc(-n2c(=O)n(C3CC3)c(=O)c3c(Nc4ccc(I)cc4F)n(C)c(=O)c(C)c32)c1 [Trametinib] + CC1(C)CCC(c2ccc(Cl)cc2)=C(CN2CCN(c3ccc(C(=O)NS(=O)(=O)c4ccc(N[C@H](CCN5CCOCC5)CSc5ccccc5)c(S(=O)(=O)C(F)(F)F)c4)cc3)CC2)C1 [Navitoclax] (partner 0.5 µM)
How it was run: as §1

Cell Line	relative viability ([1]; first compound 0.02 µM)	relative viability ([1]; first compound 0.06325 µM)	relative viability ([1]; first compound 0.6325 µM)	relative viability ([1]; first compound 2 µM)	relative viability (Trametinib + Pemetrexed; first compound 0.0025 µM)	relative viability (Trametinib + Pemetrexed; first compound 0.007906 µM)	relative viability (Trametinib + Pemetrexed; first compound 0.025 µM)	relative viability (Trametinib + Pemetrexed; first compound 0.07906 µM)	relative viability (Trametinib + Pemetrexed; first compound 0.25 µM)	relative viability ([2]; first compound 0.02 µM)	relative viability ([2]; first compound 0.06325 µM)	relative viability ([2]; first compound 0.6325 µM)	relative viability ([2]; first compound 2 µM)	relative viability (Trametinib + Navitoclax; first compound 0.0025 µM)	relative viability (Trametinib + Navitoclax; first compound 0.007906 µM)	relative viability (Trametinib + Navitoclax; first compound 0.025 µM)	relative viability (Trametinib + Navitoclax; first compound 0.07906 µM)	relative viability (Trametinib + Navitoclax; first compound 0.25 µM)	relative viability ([1]; first compound 0.2 µM)	relative viability ([2]; first compound 0.2 µM)
A-427	0.708	0.606	0.71	0.76	1.08	1.1	0.977	0.839	0.679	0.924	0.775	1	1.16	0.989	0.799	0.489	0.545	0.296	–	–
NCI-H460	0.463	0.417	0.435	0.367	0.0594	0.0614	0.0626	0.0649	0.0564	0.994	0.99	–	0.902	1.08	0.981	0.727	0.277	0.0346	0.491	0.932
NCI-H23	0.253	0.357	0.293	0.262	0.549	0.47	0.437	0.305	0.264	0.453	0.504	0.62	0.624	0.624	0.58	0.347	0.344	0.247	0.218	–
LOU-NH91	0.906	0.871	0.841	0.901	0.403	0.414	0.418	0.374	0.382	0.74	0.649	0.709	0.724	0.657	0.528	0.57	0.448	0.32	0.883	0.672
NCI-H2009	0.598	0.636	0.677	0.604	1.06	0.794	0.499	0.368	0.37	0.958	0.97	1.15	1.14	0.986	0.527	0.537	0.531	0.403	0.703	1.05
NCI-H2126	0.888	0.853	0.971	0.883	0.647	0.553	0.464	0.538	0.428	0.994	1	1.03	1.02	0.781	0.684	0.516	0.589	0.508	0.919	1.06
ChaGo-K-1	0.426	0.405	0.387	0.339	0.281	0.253	0.261	0.259	0.248	1.07	1.11	1.16	1.21	1.07	0.803	1.08	0.508	0.556	0.414	–
NCI-H1437	0.628	0.644	0.681	0.658	0.271	0.23	0.265	0.203	0.192	0.878	0.898	0.915	1.14	1.15	0.724	0.537	0.377	0.312	0.657	0.989
SK-LU-1	0.424	0.43	0.444	0.602	0.951	0.866	0.822	0.582	0.353	0.619	0.809	1.07	1.1	0.971	0.929	0.65	0.337	0.296	0.406	1.14
NCI-H838	0.695	0.604	0.765	0.67	0.245	0.212	0.229	0.217	0.213	0.615	0.657	0.707	0.833	1.05	0.973	–	1.01	0.718	0.653	0.761
NCI-H1755	0.903	0.946	0.699	0.681	0.378	0.452	0.411	0.47	0.397	0.855	0.802	0.836	0.919	0.958	0.952	0.901	0.918	0.838	0.83	0.827
NCI-H2228	0.951	0.534	0.476	0.768	0.369	0.301	0.339	0.295	0.208	0.386	0.489	0.373	0.425	0.782	0.803	0.706	0.626	0.548	0.579	–
NCI-H1915	0.259	0.257	0.304	0.257	0.492	0.521	0.313	0.262	0.216	0.767	0.873	1.07	0.973	0.799	0.79	0.681	0.719	0.217	0.28	0.87
NCI-H2347	0.491	0.503	0.565	0.616	0.425	0.44	0.362	0.302	0.337	0.588	0.802	0.694	0.674	0.678	0.328	0.143	0.198	0.215	0.539	0.607
HARA	0.247	0.747	0.726	0.794	0.224	0.226	0.254	0.212	0.219	0.975	0.958	1.02	1.09	0.984	1.1	1.14	1.06	0.976	–	0.933
NCI-H2085	0.806	0.75	0.857	0.847	0.752	0.676	0.545	0.528	0.516	0.738	0.892	0.868	0.803	1.07	0.9	0.924	0.878	0.81	0.86	0.752

Cell Line	relative viability ([1]; first compound 0.02 µM)	relative viability ([1]; first compound 0.06325 µM)	relative viability ([1]; first compound 0.6325 µM)	relative viability ([1]; first compound 2 µM)	relative viability (Trametinib + Pemetrexed; first compound 0.0025 µM)	relative viability (Trametinib + Pemetrexed; first compound 0.007906 µM)	relative viability (Trametinib + Pemetrexed; first compound 0.025 µM)	relative viability (Trametinib + Pemetrexed; first compound 0.07906 µM)	relative viability (Trametinib + Pemetrexed; first compound 0.25 µM)	relative viability ([2]; first compound 0.02 µM)	relative viability ([2]; first compound 0.06325 µM)	relative viability ([2]; first compound 0.6325 µM)	relative viability ([2]; first compound 2 µM)	relative viability (Trametinib + Navitoclax; first compound 0.0025 µM)	relative viability (Trametinib + Navitoclax; first compound 0.007906 µM)	relative viability (Trametinib + Navitoclax; first compound 0.025 µM)	relative viability (Trametinib + Navitoclax; first compound 0.07906 µM)	relative viability (Trametinib + Navitoclax; first compound 0.25 µM)	relative viability ([1]; first compound 0.2 µM)	relative viability ([2]; first compound 0.2 µM)
NCI-H1993	0.781	1.09	0.972	0.966	0.511	0.566	0.543	0.543	0.453	0.726	0.816	0.868	0.87	0.794	0.748	0.65	0.764	0.774	1.06	0.741
EMC-BAC-2	0.354	0.445	0.418	0.383	0.547	0.489	0.572	0.544	0.56	0.644	0.714	0.757	0.832	1.07	0.956	1.06	0.891	0.817	0.488	0.668
NCI-H2087	0.513	0.56	0.511	0.653	0.554	0.642	0.468	0.179	0.281	0.96	0.701	0.889	0.868	0.718	0.406	0.244	0.223	0.257	0.62	1.1
NCI-H441	0.52	0.47	0.405	0.588	0.3	0.306	0.247	0.261	0.285	0.972	0.706	0.89	0.767	0.761	0.633	0.572	0.312	0.278	0.611	0.72
LXF-289	1.09	0.998	1.07	1.1	0.844	0.832	0.688	0.672	0.772	0.775	0.785	0.849	0.895	0.872	0.755	0.721	0.63	0.538	1.19	0.881
PC-3 [JPC-3]	1.03	1.1	1.2	1.16	0.994	0.782	0.773	–	0.598	0.878	0.949	0.96	0.966	0.815	0.793	0.709	0.705	0.455	1.12	0.954
HCC-366	0.315	0.287	0.372	0.288	0.24	0.213	0.236	0.188	0.169	0.351	0.387	0.472	0.398	0.977	0.926	0.7	0.531	0.275	0.36	0.579
NCI-H1651	0.18	0.164	0.197	0.217	0.554	0.618	0.426	0.47	0.278	0.804	0.905	0.819	0.895	1.02	0.943	0.933	0.844	0.778	0.182	0.876
NCI-H1355	0.558	0.678	0.469	0.574	1.03	0.946	0.516	0.717	0.615	0.909	0.97	0.675	0.819	0.764	0.832	0.51	0.563	0.414	0.717	0.992
LC-2-ad	0.658	0.705	0.72	0.663	0.271	0.259	0.294	0.274	0.282	0.439	0.468	0.409	0.686	0.35	0.306	0.34	0.285	0.173	0.722	–
NCI-H1944	0.382	0.368	0.377	0.403	0.514	0.429	0.39	0.318	0.29	0.939	0.995	1.24	1.18	0.916	0.71	0.544	0.664	0.49	–	–
HCC-827	0.624	0.61	0.638	0.764	0.271	0.271	0.263	0.214	0.235	0.835	0.916	0.96	0.978	1.06	0.971	1.03	0.946	0.676	–	–
COR-L23	0.349	0.289	0.283	0.312	0.192	0.211	0.23	0.214	0.209	0.631	0.576	0.622	0.671	0.977	1.02	1.04	0.694	0.475	0.274	0.752
NCI-H3122	0.621	0.578	0.681	0.652	0.187	0.183	0.166	0.149	0.149	0.226	0.231	0.29	0.28	0.937	0.867	0.508	0.548	0.435	0.653	0.275
NCI-H2170	0.652	0.559	0.517	0.578	0.281	0.267	–	0.271	0.237	–	1.13	1.16	1.15	0.636	0.521	–	0.425	0.448	0.628	1.35
BEN	1.01	0.91	1.14	1.24	0.706	0.752	0.511	0.45	0.646	0.896	0.807	0.779	0.956	0.0591	0.054	–	0.0541	0.179	0.885	0.761
